Measured values as given in the supplement of paper PMC10307832.

Legend:
Assay in all cases: relative viability (nuclei count vs DMSO), 5 days (fraction); higher = more cells survive
[1] = compound: CC1CC(=O)N(C2=CN=C(N=C2N1C3CCCC3)NC4=C(C=C(C=C4)C(=O)NC5CCN(CC5)C)OC)C [NPK76-II-72-1] + O=C(c1cc(Cc2n[nH]c(=O)c3ccccc23)ccc1F)N1CCN(C(=O)C2CC2)CC1 [Olaparib] (partner 8 µM)
In short: (§1)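 Each reported value is a median over duplicate plates. It expresses relative viability: treated-well nuclei count divided by vehicle-well nuclei count. Lung cancer cell lines in 1536-well plates were dosed by pin tool a day after seeding, alone with one drug or with a fixed anchor-drug dose plus five library-drug doses (not always all listed) in √10 steps, and nuclei were counted after 5 days.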

[2] = compound: CC1CC(=O)N(C2=CN=C(N=C2N1C3CCCC3)NC4=C(C=C(C=C4)C(=O)NC5CCN(CC5)C)OC)C [NPK76-II-72-1] + Nc1nc2[nH]cc(CCc3ccc(C(=O)N[C@@H](CCC(=O)O)C(=O)O)cc3)c2c(=O)[nH]1 [Pemetrexed] (partner 0.2 µM)
In short: as §1

[3] = compound: CC[C@@H]1C(=O)N(C)c2cnc(Nc3ccc(C(=O)NC4CCN(C)CC4)cc3OC)nc2N1C1CCCC1 [BI-2536] + O=C(CCCCCCC(=O)Nc1ccccc1)NO [Vorinostat] (partner 1 µM)
In short: as §1

[4] = compound: CC[C@@H]1C(=O)N(C)c2cnc(Nc3ccc(C(=O)NC4CCN(C)CC4)cc3OC)nc2N1C1CCCC1 [BI-2536] + CS(=O)(=O)N1CCN(Cc2cc3nc(-c4cccc5[nH]ncc45)nc(N4CCOCC4)c3s2)CC1 [Pictilisib] (partner 1 µM)
In short: as §1

Cell Line | relative viability ([1]; first compound 0.01 µM) | relative viability ([1]; first compound 0.03162 µM) | relative viability ([1]; first compound 0.1 µM) | relative viability ([1]; first compound 0.3162 µM) | relative viability ([1]; first compound 1 µM) | relative viability ([2]; first compound 0.01 µM) | relative viability ([2]; first compound 0.03162 µM) | relative viability ([2]; first compound 0.1 µM) | relative viability ([2]; first compound 0.3162 µM) | relative viability ([2]; first compound 1 µM) | relative viability ([3]; first compound 0.01 µM) | relative viability ([3]; first compound 0.03162 µM) | relative viability ([3]; first compound 0.1 µM) | relative viability ([3]; first compound 0.3162 µM) | relative viability ([3]; first compound 1 µM) | relative viability ([4]; first compound 0.01 µM) | relative viability ([4]; first compound 0.03162 µM) | relative viability ([4]; first compound 0.1 µM) | relative viability ([4]; first compound 0.3162 µM) | relative viability ([4]; first compound 1 µM)
HCC-78 | 0.86 | 0.872 | 0.476 | 0.869 | 0.85 | 0.978 | 0.893 | 0.75 | 0.869 | 0.895 | 0.421 | 0.49 | 0.379 | 0.268 | 0.27 | 0.26 | 0.25 | 0.166 | 0.13 | 0.0467
HCC-366 | 0.328 | 0.374 | 0.469 | 0.39 | 0.366 | 0.127 | 0.149 | 0.132 | 0.138 | 0.143 | 0.336 | 0.347 | 0.0476 | 0.0183 | 0.0214 | 0.144 | 0.179 | 0.0833 | 0.0304 | 0.0488
HCC-827 | 0.615 | 0.649 | 0.66 | 0.608 | 0.619 | 0.293 | 0.275 | 0.302 | 0.264 | 0.278 | 0.884 | 0.943 | 0.665 | 0.222 | 0.227 | 0.917 | 1.02 | 0.976 | 0.533 | 0.339
HOP-62 | 0.389 | 0.351 | 0.466 |  | 0.465 | 0.291 | 0.374 | 0.296 | 0.245 | 0.32 | 0.528 | 0.74 | 0.188 | 0.104 | 0.13 | 0.704 | 0.965 | 0.159 | 0.0849 | 0.127
